Where two headings read alike, the source gives them in different places.
How the values were obtained:
C57BL/6J = experiment: Randomized controlled trial in mice, compounds in Lipoderm applied daily to right flank (Example 1); format: in vivo; details: for Local increase in subcutaneous fat / asymmetry between flanks: following 24 days of therapy, right flank treated, left flank untreated
Experimental: The arms were as follows: vehicle (Lipoderm®), a thiazolidinedione (pioglitazone), harmine, an orexigenic compound (megestrol acetate), and efavirenz. Each compound was combined in the percutaneous Lipoderm® formulation at an equimolar concentration (5 mM). The Lipoderm® vehicle is adapted to deliver the respective compound percutaneously, i.e., across the skin and into subcutaneous fat. The formulations were applied daily to the right flank of each animal, whereas the left flank was used as an untreated control.
A randomized controlled trial was conducted on C57BL/6J. Male mice approximately six weeks old were prospectively randomized into groups and assigned to the following treatment conditions (n=5 animals per group):
Animals were shaved and depilated over the flanks at the start of the study.
Animals were kept in identical conditions and fed ab libitum with a standardized high-fat diet (70% kcal fat). Animals were weighed three times weekly. Following 24 consecutive days of treatment, mice were sacrificed and samples of skin and adjacent fat from the treated flanks are taken for histologic examination.

patient = experiment: Clinical application for augmentation of the buttocks (Example 9); format: in vivo, human; details: 10 mg/ml in Lipoderm daily, after 6 months; contemplated
Experimental: The following description exemplifies a clinical application of percutaneous administration of an orexigenic pregnane derivative for augmentation of the buttocks. A female or male patient wishes to undergo a buttocks augmentation procedure but is concerned about the risks of surgery. The physician prescribes a daily application of megestrol acetate (for example, 10 mg/ml in Lipoderm®) to the buttocks.

Gottingen minipigs = details: for Increase over Placebo in subcutaneous fat thickness, MEAN: mean of 24 sites, 42 days
Experimental: (§1) A prospective controlled trial was performed in 4 Gottingen minipigs (2 males, 2 females). Hair on the back was clipped. […] An equivalent Vehicle Treatment Area was marked on the left side of the animal, such that the two treatment areas were anatomically equivalent. […] After 42 days of treatment, plasma pharmacokinetics (PK) was assessed on all animals by Liquid Chromatography/Tandem Mass Spectrometry. Necropsy was done and samples of skin, subcutaneous fat, and muscle were collected en bloc from each treatment area in a controlled fashion. […] Table 5 presents the thicknesses of subcutaneous fat on each of six treated and control (vehicle) locations, by animal. […] Table 6 compares plasma PK following percutaneous administration (present study) with plasma PK following oral administration in humans.

[1] = Plasma pharmacokinetics after percutaneous administration in minipigs (Example 4); details: percutaneous versus oral
Experimental: as §1

CC(=O)O[C@]1(C(C)=O)CC[C@H]2[C@@H]3C=C(C)C4=CC(=O)CC[C@]4(C)[C@H]3CC[C@@]21C [Megestrol acetate]
Relative skin fold thickness of left and right flanks (C57BL/6J; examined on Day 24): asymmetric, with thicker skin folds on the treated flanks compared to the untreated flanks
Local increase in subcutaneous fat / asymmetry between flanks (C57BL/6J): exhibited local increases in subcutaneous fat
Thickness of skin fold, right (treated) flank (C57BL/6J; representative mouse, 24 days of treatment, left (untreated) flank about 2 mm): about 4 mm
Buttocks size, clinical appearance (patient): the buttocks appear clinically larger

COc1ccc2c(c1)[nH]c1c(C)nccc12 [Harmine]
Local increase in subcutaneous fat / asymmetry between flanks (C57BL/6J): did not exhibit any increase in fat or asymmetry between the two flanks

O=C1Nc2ccc(Cl)cc2[C@@](C#CC2CC2)(C(F)(F)F)O1 [Efavirenz]
Local increase in subcutaneous fat / asymmetry between flanks (C57BL/6J): did not exhibit any increase in fat or asymmetry between the two flanks

CN(CCOc1ccc(CC2SC(=O)NC2=O)cc1)c1ccccn1 (centres unmarked) [Rosiglitazone]
Increase over Placebo in subcutaneous fat thickness, MEAN (Gottingen minipigs): 48%
Increase over Placebo in subcutaneous fat thickness, MEAN (Gottingen minipigs; listed as rosiglitazone): 48%
Tolerability (Gottingen minipigs; minipig, in vivo): well tolerated, with no evidence of skin irritation or other clinical observations
Peak plasma concentration, lower than for oral (systemic) therapy [1]: about 3400 fold
Plasma exposure, lower than for oral (systemic) therapy [1]: ~1300 fold
